Literature values, collected in PMC11920646 (Frontiers in Pharmacology, 2025).

Legend:
[1] = humans ref Ripa et al., 2018; cited from earlier work
[2] = test system: IL-6 release in A549 cells; design: method as in Hu et al., 2011; settings: dagrocorat study ref Hu et al., 2011; cited from earlier work
[3] = test system: IFN-γ release in human whole blood; design: method as in Hu et al., 2011; settings: at concentrations each of 100–1000 nM ref Hu et al., 2011; cited from earlier work

In the case of `CC(C)[C@H](NC(=O)C(C)(F)F)[C@H](Oc1ccc2c(cnn2-c2ccc(=O)n(C)c2)c1)c1ccccc1` [mizacorat], the t½ [1] is listed as roughly 5 h.
For `Cc1ncccc1NC(=O)c1ccc2c(c1)CC[C@@H]1C[C@@](O)(C(F)(F)F)CC[C@@]21Cc1ccccc1` [dagrocorat], the “inhibition of IL-6 release in A549 cells” value [2] is listed as 78% and the “inhibition of IFN-γ release in human whole blood” value [3] is listed as 60–70%.
